Positions of bridges follow the written chain, without caps; N, C: chain ends. Residues, ends and D or L forms follow the SMILES beside them. Chains are numbered I, II in the order given.
Key:
[1] = test system: peripheral blood lymphocytes of mite-allergic patient; test: Blast formation of lymphocytes (3H-thymidine incorporation), mite-allergic patients; format: cell-based, human; details: 7 days culture with peptide, 3H-thymidine overnight; for radioactivity of 3H-thymidine incorporated into lymphocytes, Specimen 1: Specimen 1, lymphocytes of mite-allergic patient; for radioactivity of 3H-thymidine incorporated into lymphocytes, Specimen 2: Specimen 2, lymphocytes of mite-allergic patient; for radioactivity of 3H-thymidine incorporated into lymphocytes, Specimen 3: Specimen 3, lymphocytes of mite-allergic patient
Protocol: (§1) Blast formation of lymphocytes by peptides of formula I-V of the present invention
(§2) Peripheral blood lymphocytes collected from a mite-allergic patient or a non-allergic subject were suspended in a cell culture medium RPMI 1640 supplemented with 10% fetal bovine serum, so as to give a suspension of 1×10^6 cells/ml. Then, the suspension (0.2 ml/well) prepared above was placed in a 96-well microplate for cell culture and further, 20 μl each of a solution of one of the peptides of the formula I-V was placed in the respective wells. The lymphocytes thus treated were cultivated in a humidified atmosphere containing 5% CO2 at 37° C. for 7 days. Thereafter, 20 μl of a ^3 H-thymidine solution (12.5 μCi/ml) was added to each of the wells and allowed to react overnight. The peripheral blood lymphocytes were then collected onto filter, and the radioactivity was measured by a liquid scintillation counter.
(§3) As is apparent from Table 1, virtually no incorporation of ^3 H-thymidine was recognized in the peripheral blood lymphocyte of a non-allergic subject, while a high radioactivity was detected from the peripheral blood lymphocytes of a mite-allergic patient.

[2] = test system: peripheral blood lymphocytes of non-allergic subject; test: Blast formation of lymphocytes (3H-thymidine incorporation), non-allergic subject; format: cell-based, human; details: Specimen 4, lymphocytes of non-allergic subject; 7 days culture with peptide, 3H-thymidine overnight
Protocol: as §1, §2, §3

Compound	radioactivity of 3H-thymidine incorporated into lymphocytes, Specimen 1 [1] [cpm]	radioactivity of 3H-thymidine incorporated into lymphocytes, Specimen 2 [1] [cpm]	radioactivity of 3H-thymidine incorporated into lymphocytes, Specimen 3 [1] [cpm]	radioactivity of 3H-thymidine incorporated into lymphocytes, Specimen 4 [2] [cpm]
CC[C@H](C)[C@H](NC(=O)[C@H](C)NC(=O)[C@H](CSSC[C@H](NC(=O)[C@H](C)NC(=O)[C@H](CC(C)C)NC(=O)[C@@H](NC(=O)CN)C(C)C)C(=O)N[C@@H](C)C(=O)N[C@H](C(=O)N[C@@H](C)C(=O)N[C@H](C(=O)N[C@@H](Cc1c[nH]cn1)C(=O)N[C@@H](C)C(=O)N[C@@H](CCCCN)C(=O)N[C@H](C(=O)N[C@@H](CCCNC(=N)N)C(=O)N[C@@H](CC(=O)O)C(=O)O)[C@@H](C)CC)[C@@H](C)O)[C@@H](C)CC)NC(=O)[C@H](C)NC(=O)[C@H](CC(C)C)NC(=O)[C@@H](NC(=O)CN)C(C)C)C(=O)N[C@@H](C)C(=O)N[C@H](C(=O)N[C@@H](Cc1c[nH]cn1)C(=O)N[C@@H](C)C(=O)N[C@@H](CCCCN)C(=O)N[C@H](C(=O)N[C@@H](CCCNC(=N)N)C(=O)N[C@@H](CC(=O)O)C(=O)O)[C@@H](C)CC)[C@@H](C)O [IV] (I: H-GVLACAIATHAKIRD-OH / II: H-GVLACAIATHAKIRD-OH; disulfide I:5-II:5)	374	324	162	< 100
CC[C@H](C)[C@H](NC(=O)[C@H](CCC(=O)O)NC(=O)[C@H](CC(N)=O)NC(=O)[C@H](CC(N)=O)NC(=O)[C@H](C)NC(=O)[C@H](CSSC[C@H](NC(=O)[C@H](CC(=O)O)NC(=O)[C@H](CCCCN)NC(=O)[C@@H](NC(=O)[C@H](CC(=O)O)NC(=O)[C@@H](NC(=O)[C@H](CCC(N)=O)NC(=O)[C@@H](N)CC(=O)O)C(C)C)C(C)C)C(=O)N[C@@H](C)C(=O)N[C@@H](CC(N)=O)C(=O)N[C@@H](CC(N)=O)C(=O)N[C@@H](CCC(=O)O)C(=O)N[C@H](C(=O)N[C@@H](CCCCN)C(=O)N[C@@H](CCCCN)C(=O)O)[C@@H](C)CC)NC(=O)[C@H](CC(=O)O)NC(=O)[C@H](CCCCN)NC(=O)[C@@H](NC(=O)[C@H](CC(=O)O)NC(=O)[C@@H](NC(=O)[C@H](CCC(N)=O)NC(=O)[C@@H](N)CC(=O)O)C(C)C)C(C)C)C(=O)N[C@@H](CCCCN)C(=O)N[C@@H](CCCCN)C(=O)O [II] (I: H-DQVDVKDCANNEIKK-OH / II: H-DQVDVKDCANNEIKK-OH; disulfide I:8-II:8)	219	125	158	< 100
H-DQVDVKDCANNEIKK-OH [I, H-Asp-Gln-Val-Asp-Val-Lys-Asp-Cys-Ala-Asn-Asn-Glu-Ile-Lys-Lys-OH]	281	389	282	< 100
CC[C@H](C)[C@H](NC(=O)[C@H](C)NC(=O)[C@H](CSSC[C@H](NC(=O)[C@H](CC(=O)O)NC(=O)[C@H](CCCCN)NC(=O)[C@@H](NC(=O)[C@H](CC(=O)O)NC(=O)[C@@H](NC(=O)[C@H](CCC(N)=O)NC(=O)[C@@H](N)CC(=O)O)C(C)C)C(C)C)C(=O)N[C@@H](C)C(=O)N[C@@H](CC(N)=O)C(=O)N[C@@H](CC(N)=O)C(=O)N[C@@H](CCC(=O)O)C(=O)N[C@H](C(=O)N[C@@H](CCCCN)C(=O)N[C@@H](CCCCN)C(=O)O)[C@@H](C)CC)NC(=O)[C@H](C)NC(=O)[C@H](CC(C)C)NC(=O)[C@@H](NC(=O)CN)C(C)C)C(=O)N[C@@H](C)C(=O)N[C@H](C(=O)N[C@@H](Cc1c[nH]cn1)C(=O)N[C@@H](C)C(=O)N[C@@H](CCCCN)C(=O)N[C@H](C(=O)N[C@@H](CCCNC(=N)N)C(=O)N[C@@H](CC(=O)O)C(=O)O)[C@@H](C)CC)[C@@H](C)O [V] (I: H-DQVDVKDCANNEIKK-OH / II: H-GVLACAIATHAKIRD-OH; disulfide I:8-II:5)	1457	430	179	< 100
H-GVLACAIATHAKIRD-OH [III, H-Gly-Val-Leu-Ala-Cys-Ala-Ile-Ala-Thr-His-Ala-Lys-Ile-Arg-Asp-OH]	547	259	158	< 100

From patent publication US5460977A, “Peptide having allergenicity” (Torii & Co., priority 1992, dated 1995)
